Experimental data from patent US9211310B2, “Use of a Chinese medicine composition in preparing medicaments for treating secondary prevention of myocardial infarction” (TASLY PHARMACEUTICAL GROUP CO., LTD, priority 2010, dated 2015).

System: patients after acute myocardial infarction
Assay: Life quality, Seattle Angina Questionnaire (SAQ), same clinical trial
Format: in vivo, human
Settings: 9 months after treatment
Excerpt: 3508 patients who were in accordance with the diagnostic standards of AMI for 28 days to 2 years and differentiated as Qi deficiency and blood stagnation syndrome by TCM were studied. 0.5 g Chinese medicine composition prepared by the method of EXAMPLE 1 (Coded as QSYQ) was administrated half an hour after meal, 3 times per day.
There were 19 questions in the Seattle angina questionnaire (SAQ), including 5 parts: physical limitation (PL), anginal stability (AS), anginal frequency (AF), treatment satisfaction (TS) and disease perception (DP). After being given necessary explanation by doctors, the questions were answered independently by patients.
They included the overall survival time, angina pectoris score, TCM symptom score and life quality score, where angina pectoris score, TCM symptom score and life quality score were evaluated at randomization, in 1st, 3rd, 6th, 9th, 12th month after treatment and 18th month after follow-up.
All evaluation results of SAQ were described during the period of observation, and Wilcoxon rank sum test was used for inter-group comparison.
The evaluation results in the SAQ were depicted in different observations, and inter-group comparison was tested by Wilcoxon Rank-sum test.

CC(=O)Oc1ccccc1C(=O)O [Control group, aspirine]
SAQ Question 1-4: Not limited, number of patients (FAS): 797
SAQ Question 1-4: Not limited, percent of patients (FAS): (45.70%)
SAQ Question 1-4: Other reasons, number of patients (FAS): 10
SAQ Question 1-4: Other reasons, percent of patients (FAS): (0.57%)
SAQ Question 1-4: Severely limited, number of patients (FAS): 19
SAQ Question 1-4: Severely limited, percent of patients (FAS): (1.09%)
SAQ Question 1-4: Slightly limited, number of patients (FAS): 569
SAQ Question 1-4: Slightly limited, percent of patients (FAS): (32.63%)
SAQ Question 1-5: Mildly limited, number of patients (FAS): 284
SAQ Question 1-5: Mildly limited, percent of patients (FAS): (16.29%)
SAQ Question 1-5: Moderately limited, number of patients (FAS): 103
SAQ Question 1-5: Moderately limited, percent of patients (FAS): (5.91%)
SAQ Question 1-5: Not limited, number of patients (FAS): 825
SAQ Question 1-5: Not limited, percent of patients (FAS): (47.33%)
SAQ Question 1-5: Other reasons, number of patients (FAS): 11
SAQ Question 1-5: Other reasons, percent of patients (FAS): (0.63%)
SAQ Question 1-5: Severely limited, number of patients (FAS): 17
SAQ Question 1-5: Severely limited, percent of patients (FAS): (0.98%)
SAQ Question 1-5: Slightly limited, number of patients (FAS): 503
SAQ Question 1-5: Slightly limited, percent of patients (FAS): (28.86%)
SAQ Question 1-9: Mildly limited, % of cases (FAS): (19.38%)
SAQ Question 1-9: Mildly limited, cases (FAS): 332
SAQ Question 1-9: Moderately limited, % of cases (FAS): (20.61%)
SAQ Question 1-9: Moderately limited, cases (FAS): 353
SAQ Question 1-9: Not limited, % of cases (FAS): (3.91%)
SAQ Question 1-9: Not limited, cases (FAS): 67
SAQ Question 1-9: Other reasons, % of cases (FAS): (5.60%)
SAQ Question 1-9: Other reasons, cases (FAS): 96
SAQ Question 1-9: Severely limited, % of cases (FAS): (33.39%)
SAQ Question 1-9: Severely limited, cases (FAS): 572
SAQ Question 1-9: Slightly limited, % of cases (FAS): (17.10%)
SAQ Question 1-9: Slightly limited, cases (FAS): 293
SAQ 2nd question: Clearly increased, % of cases (PP): (0.63%)
SAQ 2nd question: Clearly increased, cases (PP): 9
SAQ 2nd question: Clearly reduced, % of cases (PP): (26.01%)
SAQ 2nd question: Clearly reduced, cases (PP): 373
SAQ 2nd question: Same, % of cases (PP): (34.94%)
SAQ 2nd question: Same, cases (PP): 501
SAQ 2nd question: Slightly increased, % of cases (PP): (3.21%)
SAQ 2nd question: Slightly increased, cases (PP): 46
SAQ 2nd question: Slightly reduced, % of cases (PP): (35.22%)
SAQ 2nd question: Slightly reduced, cases (PP): 505
SAQ 3rd question: 1-2 times per week, % of cases (PP): (35.22%)
SAQ 3rd question: 1-2 times per week, cases (PP): 505
SAQ 3rd question: 1-3 times per day, % of cases (PP): (3.21%)
SAQ 3rd question: 1-3 times per day, cases (PP): 46
SAQ 3rd question: <1 time per week, % of cases (PP): (26.01%)
SAQ 3rd question: <1 time per week, cases (PP): 373
SAQ 3rd question: No onset, % of cases (PP): (0.00%)
SAQ 3rd question: No onset, cases (PP): 0
SAQ 3rd question: ≧3 times per week, % of cases (PP): (34.94%)
SAQ 3rd question: ≧3 times per week, cases (PP): 501
SAQ 3rd question: ≧4 times per day, % of cases (PP): (0.63%)
SAQ 3rd question: ≧4 times per day, cases (PP): 9
SAQ Question 1-3: Mildly limited, number of patients (PP): 37
SAQ Question 1-3: Mildly limited, percent of patients (PP): (2.57%)
SAQ Question 1-3: Moderately limited, number of patients (PP): 10
SAQ Question 1-3: Moderately limited, percent of patients (PP): (0.70%)
SAQ Question 1-3: Not limited, number of patients (PP): 1187
SAQ Question 1-3: Not limited, percent of patients (PP): (82.60%)
SAQ Question 1-3: Other reasons, number of patients (PP): 6
SAQ Question 1-3: Other reasons, percent of patients (PP): (0.42%)
SAQ Question 1-3: Severely limited, number of patients (PP): 1
SAQ Question 1-3: Severely limited, percent of patients (PP): (0.07%)
SAQ Question 1-3: Slightly limited, number of patients (PP): 196
SAQ Question 1-3: Slightly limited, percent of patients (PP): (13.64%)
SAQ Question 1-4: Mildly limited, number of patients (PP): 208
SAQ Question 1-4: Mildly limited, percent of patients (PP): (14.49%)
SAQ Question 1-4: Moderately limited, number of patients (PP): 63
SAQ Question 1-4: Moderately limited, percent of patients (PP): (4.39%)
SAQ Question 1-4: Not limited, number of patients (PP): 673
SAQ Question 1-4: Not limited, percent of patients (PP): (46.90%)
SAQ Question 1-4: Other reasons, number of patients (PP): 10
SAQ Question 1-4: Other reasons, percent of patients (PP): (0.70%)
SAQ Question 1-4: Severely limited, number of patients (PP): 9
SAQ Question 1-4: Severely limited, percent of patients (PP): (0.63%)
SAQ Question 1-4: Slightly limited, number of patients (PP): 472
